Experiment in all cases: DSF 100 kinase selectivity screen;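 also: compound tested at 20 µM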
Assay type in all cases: binding

For experiment [1], the target named is T1, ~100 representative kinases (Homo sapiens, UniProt O96017).
T1 construct: Recombinant protein kinase domains with a concentration of 2 μM
The conditions noted are these: Protein CHEK2; average of three replicates. In a few lines: (§1)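 Each kinase domain, at 2 μM, is mixed with 20 μM test compound and SYPRO Orange in Hepes (20 mM, pH 7.5) with 500 mM NaCl. Temperature is then raised at 3°C/min and fluorescence-monitored unfolding yields the melting temperature change, ΔTm in degrees Celsius.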

The target in experiment [2] is T2, ~100 representative kinases (Homo sapiens, UniProt P07332).
T2 construct: Recombinant protein kinase domains with a concentration of 2 μM
T2 sequence (P07332 whole entry, the tested form may be a part): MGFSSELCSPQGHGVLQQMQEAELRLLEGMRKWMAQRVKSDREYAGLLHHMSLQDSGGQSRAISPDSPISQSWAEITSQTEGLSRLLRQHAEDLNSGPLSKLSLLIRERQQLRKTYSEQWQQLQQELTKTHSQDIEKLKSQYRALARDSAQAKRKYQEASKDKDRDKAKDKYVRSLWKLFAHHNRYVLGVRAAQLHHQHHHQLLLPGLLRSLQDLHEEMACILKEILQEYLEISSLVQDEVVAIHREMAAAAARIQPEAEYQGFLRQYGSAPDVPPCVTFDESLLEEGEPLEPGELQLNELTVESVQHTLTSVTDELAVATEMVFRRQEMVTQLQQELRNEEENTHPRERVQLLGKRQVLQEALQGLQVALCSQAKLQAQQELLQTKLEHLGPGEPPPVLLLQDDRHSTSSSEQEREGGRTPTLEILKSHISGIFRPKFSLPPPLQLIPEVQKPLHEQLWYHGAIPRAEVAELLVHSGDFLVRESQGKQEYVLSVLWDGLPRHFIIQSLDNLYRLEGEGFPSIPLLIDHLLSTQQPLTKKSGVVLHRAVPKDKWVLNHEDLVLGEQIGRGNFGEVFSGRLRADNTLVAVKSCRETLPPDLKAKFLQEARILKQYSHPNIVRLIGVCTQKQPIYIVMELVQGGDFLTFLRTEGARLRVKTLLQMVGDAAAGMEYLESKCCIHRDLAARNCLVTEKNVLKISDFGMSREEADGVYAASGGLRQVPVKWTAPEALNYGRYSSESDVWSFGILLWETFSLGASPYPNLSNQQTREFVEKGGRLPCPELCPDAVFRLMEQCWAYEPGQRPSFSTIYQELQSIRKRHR
The conditions noted are these: protein FESA; average of three replicates. In a few lines: as §1

Experiment [3] has as its target T3, ~100 representative kinases (Homo sapiens, UniProt P15735).
T3 construct: Recombinant protein kinase domains with a concentration of 2 μM
T3 sequence (P15735 1-406): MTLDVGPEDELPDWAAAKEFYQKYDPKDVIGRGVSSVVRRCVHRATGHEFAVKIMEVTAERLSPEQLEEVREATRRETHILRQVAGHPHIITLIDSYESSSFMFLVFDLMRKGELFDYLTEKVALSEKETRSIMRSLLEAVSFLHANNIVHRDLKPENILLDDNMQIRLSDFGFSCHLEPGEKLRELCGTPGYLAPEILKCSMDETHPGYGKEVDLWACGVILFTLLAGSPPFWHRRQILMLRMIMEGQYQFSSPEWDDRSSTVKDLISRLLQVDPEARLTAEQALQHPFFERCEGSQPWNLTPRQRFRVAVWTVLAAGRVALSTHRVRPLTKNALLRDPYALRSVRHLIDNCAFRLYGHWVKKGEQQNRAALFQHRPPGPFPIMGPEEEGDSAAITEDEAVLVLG
The conditions noted are these: protein PHKG2; average of three replicates. A digest of the protocol: as §1

The target of experiment [4] is T4, ~100 representative kinases (Homo sapiens, UniProt P48730).
T4 construct: Recombinant protein kinase domains with a concentration of 2 μM
T4 sequence (P48730 whole entry, the tested form may be a part): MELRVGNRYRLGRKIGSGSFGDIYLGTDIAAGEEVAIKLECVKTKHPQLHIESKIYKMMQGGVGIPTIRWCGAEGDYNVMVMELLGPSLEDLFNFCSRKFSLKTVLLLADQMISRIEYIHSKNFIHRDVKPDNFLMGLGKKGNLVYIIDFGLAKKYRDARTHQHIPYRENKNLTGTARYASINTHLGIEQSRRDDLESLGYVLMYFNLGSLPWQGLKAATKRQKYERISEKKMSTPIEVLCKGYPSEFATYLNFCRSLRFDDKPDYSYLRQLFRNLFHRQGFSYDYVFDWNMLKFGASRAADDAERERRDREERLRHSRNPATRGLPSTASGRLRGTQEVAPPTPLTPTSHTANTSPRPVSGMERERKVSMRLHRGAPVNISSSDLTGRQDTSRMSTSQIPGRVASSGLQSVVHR
The conditions noted are these: Protein CSNK1D; average of three replicates. A digest of the protocol: as §1

Experiment [5] deals with T5, ~100 representative kinases (Homo sapiens, UniProt P49759).
T5 construct: Recombinant protein kinase domains with a concentration of 2 μM
T5 sequence (P49759 whole entry, the tested form may be a part): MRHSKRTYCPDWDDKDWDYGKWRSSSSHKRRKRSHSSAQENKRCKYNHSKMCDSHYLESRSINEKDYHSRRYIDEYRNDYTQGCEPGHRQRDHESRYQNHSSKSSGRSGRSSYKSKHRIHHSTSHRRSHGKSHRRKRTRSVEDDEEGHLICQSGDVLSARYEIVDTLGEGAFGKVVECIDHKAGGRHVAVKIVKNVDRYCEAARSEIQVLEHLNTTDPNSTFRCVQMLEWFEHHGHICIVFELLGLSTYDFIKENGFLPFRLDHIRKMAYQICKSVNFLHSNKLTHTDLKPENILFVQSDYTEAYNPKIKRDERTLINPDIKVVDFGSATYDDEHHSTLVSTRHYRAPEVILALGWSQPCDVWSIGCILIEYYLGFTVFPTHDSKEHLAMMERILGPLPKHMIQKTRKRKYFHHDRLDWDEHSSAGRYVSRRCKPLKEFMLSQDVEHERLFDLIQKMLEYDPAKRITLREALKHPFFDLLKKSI
The following applies: Protein CLK1; average of three replicates. A digest of the protocol: as §1

In experiment [6] the target is T6, ~100 representative kinases (Homo sapiens, UniProt P53355).
T6 construct: Recombinant protein kinase domains with a concentration of 2 μM
The conditions noted are these: Protein DAPK1; average of three replicates. In a few lines: as §1

In experiment [7] the target is T7, ~100 representative kinases (Homo sapiens, UniProt P54764).
T7 construct: Recombinant protein kinase domains with a concentration of 2 μM
T7 sequence (P54764 20-986): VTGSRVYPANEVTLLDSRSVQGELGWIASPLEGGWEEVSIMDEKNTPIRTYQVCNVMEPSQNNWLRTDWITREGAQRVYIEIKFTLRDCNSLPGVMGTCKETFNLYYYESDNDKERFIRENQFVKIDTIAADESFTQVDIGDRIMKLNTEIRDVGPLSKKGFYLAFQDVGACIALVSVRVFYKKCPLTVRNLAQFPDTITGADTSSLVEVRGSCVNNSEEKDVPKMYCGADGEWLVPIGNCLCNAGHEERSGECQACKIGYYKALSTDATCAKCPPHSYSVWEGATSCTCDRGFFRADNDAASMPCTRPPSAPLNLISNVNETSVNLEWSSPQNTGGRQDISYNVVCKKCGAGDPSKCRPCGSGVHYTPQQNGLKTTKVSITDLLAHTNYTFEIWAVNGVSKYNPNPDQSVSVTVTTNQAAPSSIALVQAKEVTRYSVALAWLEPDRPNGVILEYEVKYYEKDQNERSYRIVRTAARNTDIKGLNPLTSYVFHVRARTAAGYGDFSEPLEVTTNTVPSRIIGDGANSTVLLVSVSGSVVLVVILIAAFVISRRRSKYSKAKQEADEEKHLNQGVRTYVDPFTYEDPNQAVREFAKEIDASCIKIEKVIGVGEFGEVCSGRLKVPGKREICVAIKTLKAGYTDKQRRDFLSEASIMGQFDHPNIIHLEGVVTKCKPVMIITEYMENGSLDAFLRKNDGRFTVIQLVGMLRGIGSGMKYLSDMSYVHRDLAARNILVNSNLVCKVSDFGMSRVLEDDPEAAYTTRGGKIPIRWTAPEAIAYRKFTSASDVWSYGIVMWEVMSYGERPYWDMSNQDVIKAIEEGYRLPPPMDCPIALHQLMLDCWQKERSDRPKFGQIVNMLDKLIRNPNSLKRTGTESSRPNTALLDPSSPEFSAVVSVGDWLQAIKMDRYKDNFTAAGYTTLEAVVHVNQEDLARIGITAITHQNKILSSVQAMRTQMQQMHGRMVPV
The conditions noted are these: Protein EPHA4; average of three replicates. In a few lines:
as §1

Experiment [8] addresses T8, ~100 representative kinases (Homo sapiens, UniProt Q15418).
T8 construct: Recombinant protein kinase domains with a concentration of 2 μM
The following applies: Protein RPS6KA1; DSF; average of three replicates. In a few lines:
as §1

The target of experiment [9] is T9, ~100 representative kinases (Homo sapiens, UniProt Q96PY6).
T9 construct: Recombinant protein kinase domains with a concentration of 2 μM
T9 sequence (Q96PY6 1-1258): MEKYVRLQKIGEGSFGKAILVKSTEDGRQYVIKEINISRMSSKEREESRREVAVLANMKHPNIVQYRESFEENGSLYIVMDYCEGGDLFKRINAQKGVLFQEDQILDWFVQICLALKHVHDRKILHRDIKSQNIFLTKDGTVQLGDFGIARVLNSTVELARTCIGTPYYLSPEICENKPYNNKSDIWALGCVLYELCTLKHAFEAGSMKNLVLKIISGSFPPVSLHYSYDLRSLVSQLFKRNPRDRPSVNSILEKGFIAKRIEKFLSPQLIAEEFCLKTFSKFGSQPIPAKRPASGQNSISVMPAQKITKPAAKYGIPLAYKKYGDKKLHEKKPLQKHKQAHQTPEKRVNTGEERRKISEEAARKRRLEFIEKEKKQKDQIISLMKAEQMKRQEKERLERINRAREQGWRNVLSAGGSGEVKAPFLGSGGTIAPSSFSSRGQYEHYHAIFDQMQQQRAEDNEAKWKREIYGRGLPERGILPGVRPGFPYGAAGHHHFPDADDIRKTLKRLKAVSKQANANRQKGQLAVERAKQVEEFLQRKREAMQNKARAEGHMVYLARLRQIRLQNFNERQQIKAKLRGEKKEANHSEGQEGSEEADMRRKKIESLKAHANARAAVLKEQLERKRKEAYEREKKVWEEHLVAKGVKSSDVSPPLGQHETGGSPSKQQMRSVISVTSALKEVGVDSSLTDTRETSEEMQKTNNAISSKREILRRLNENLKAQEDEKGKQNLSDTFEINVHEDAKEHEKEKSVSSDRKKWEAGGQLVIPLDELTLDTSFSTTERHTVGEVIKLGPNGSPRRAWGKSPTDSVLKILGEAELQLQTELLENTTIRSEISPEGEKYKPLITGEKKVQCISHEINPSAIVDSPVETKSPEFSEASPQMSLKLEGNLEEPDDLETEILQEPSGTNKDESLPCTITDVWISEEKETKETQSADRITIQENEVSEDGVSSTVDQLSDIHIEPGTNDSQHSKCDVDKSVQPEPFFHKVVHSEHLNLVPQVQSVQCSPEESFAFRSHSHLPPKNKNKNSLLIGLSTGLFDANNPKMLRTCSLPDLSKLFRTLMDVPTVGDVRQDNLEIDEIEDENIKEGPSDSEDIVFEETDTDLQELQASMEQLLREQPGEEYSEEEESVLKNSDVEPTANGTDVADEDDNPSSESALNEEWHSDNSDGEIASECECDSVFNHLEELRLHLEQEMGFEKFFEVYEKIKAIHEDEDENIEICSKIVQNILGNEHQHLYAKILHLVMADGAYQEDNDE
The following applies: protein NEK1; average of three replicates. A digest of the protocol: as §1

Each structure is given as a SMILES string.

T1 sequence (O96017 whole entry, the tested form may be a part): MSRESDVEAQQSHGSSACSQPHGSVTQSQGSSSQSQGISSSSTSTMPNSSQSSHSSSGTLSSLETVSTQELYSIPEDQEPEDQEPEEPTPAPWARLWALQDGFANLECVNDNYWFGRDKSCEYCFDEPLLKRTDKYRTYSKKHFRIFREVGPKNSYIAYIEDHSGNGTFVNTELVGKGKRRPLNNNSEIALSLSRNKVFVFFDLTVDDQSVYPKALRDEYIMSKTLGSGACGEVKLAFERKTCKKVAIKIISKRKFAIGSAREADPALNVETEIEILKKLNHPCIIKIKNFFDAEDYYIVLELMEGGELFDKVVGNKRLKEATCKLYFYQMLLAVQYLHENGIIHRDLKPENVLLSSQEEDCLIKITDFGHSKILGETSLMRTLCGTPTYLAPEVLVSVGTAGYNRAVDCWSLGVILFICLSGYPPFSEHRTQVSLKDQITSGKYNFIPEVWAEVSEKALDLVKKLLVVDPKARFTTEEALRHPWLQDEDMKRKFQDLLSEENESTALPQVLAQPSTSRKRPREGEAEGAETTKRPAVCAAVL
T8 sequence (Q15418 whole entry, the tested form may be a part): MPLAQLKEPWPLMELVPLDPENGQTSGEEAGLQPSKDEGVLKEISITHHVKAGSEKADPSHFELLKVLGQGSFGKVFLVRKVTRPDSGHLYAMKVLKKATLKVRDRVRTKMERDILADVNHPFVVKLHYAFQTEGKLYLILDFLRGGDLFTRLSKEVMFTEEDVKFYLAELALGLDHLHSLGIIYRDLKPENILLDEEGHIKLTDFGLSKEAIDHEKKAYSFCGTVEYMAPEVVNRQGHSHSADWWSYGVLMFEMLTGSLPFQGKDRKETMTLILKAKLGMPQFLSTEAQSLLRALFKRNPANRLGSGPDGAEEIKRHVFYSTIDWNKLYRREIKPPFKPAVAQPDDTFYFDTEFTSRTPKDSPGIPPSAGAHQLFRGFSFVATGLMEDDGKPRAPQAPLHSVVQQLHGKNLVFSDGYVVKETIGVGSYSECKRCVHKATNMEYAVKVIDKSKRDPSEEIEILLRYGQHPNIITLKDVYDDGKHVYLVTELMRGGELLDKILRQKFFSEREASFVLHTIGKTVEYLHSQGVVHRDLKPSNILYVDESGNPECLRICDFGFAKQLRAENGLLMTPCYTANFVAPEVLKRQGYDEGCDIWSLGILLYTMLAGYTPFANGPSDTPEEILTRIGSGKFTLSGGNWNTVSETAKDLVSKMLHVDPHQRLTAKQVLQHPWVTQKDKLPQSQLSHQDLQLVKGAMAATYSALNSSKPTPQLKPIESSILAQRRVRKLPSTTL

As to `Cn1cc(-c2c[nH]c3ncnc(N4CCOCC4)c23)cc1C#N` [PFE-360], the dTm in [1] is given as 3.22 K; in [2] it was 0.78 K; in experiment [3] it was 1.53 K; in experiment [4] it was 0.63 K; in experiment [5] it was 7.59 K; in experiment [6], 0.54 K. In addition, the dTm in experiment [7] came out at 0.0126 K; in experiment [8] it was 1.09 K; in experiment [9], 0.39 K.

For the compound `C[C@@H]1CN(c2cc(-c3n[nH]c4ccc(OC5(C)CC5)cc34)ncn2)C[C@H](C)O1` [MLi2], the dTm was 3.06 K in [1]; 1.83 K in experiment [2]; 4.00 K in [3]; 0.66 K in experiment [4]; 3.00 K in experiment [5]; 0.22 K in experiment [6]. Besides, the dTm in experiment [7] is listed as -0.15 K; in experiment [8], 2.98 K; in experiment [9], 0.27 K.

Take `O=C(Nc1ccc(F)cc1)C1(C(=O)Nc2cccc(-c3c[nH]c4ncnc(N5CCOCC5)c34)c2)CC1` [Compound 2]: the dTm in experiment [1] is listed as 4.13 K; in experiment [2], 7.20 K; in experiment [3], 2.27 K; in [4], 2.09 K; in experiment [5], 9.06 K; in experiment [6] it was -0.33 K. The dTm in experiment [7] is 2.10 K; in experiment [8], 0.23 K; in experiment [9], -0.21 K.

For the compound `CCSc1nc(NC)c2c(-c3cccc(NC(=O)Nc4cc(C(C)(C)C)nn4-c4ccc(C)cc4)c3)c[nH]c2n1` [Compound 32], the dTm in [1] is recorded as 3.19 K; in experiment [2] it was 3.81 K; in [3], -0.14 K; in [4], 0.85 K; in experiment [5] it was 5.52 K; in experiment [6] it was -0.22 K. The dTm in experiment [7] is -0.34 K; in experiment [8], 0.43 K; in experiment [9] it was -1.34 K.

In the case of `O=C(Nc1cccc(-c2c[nH]c3ncnc(N4CCOCC4)c23)c1)C1(C(=O)Nc2ccc(F)c(Br)c2)CC1` [Compound 19], the dTm in experiment [1] is listed as 3.80 K; in experiment [2] it was 6.49 K; in experiment [3], 1.52 K; in experiment [4] it was 0.43 K; in [5], 8.69 K; in experiment [6] it was -1.32 K. For the same compound, the dTm is on record as 1.78 K in experiment [7], 0.26 K in [8] and -0.89 K in experiment [9].

With `COc1cc(NC(=O)C2(C(=O)Nc3cccc(-c4c[nH]c5ncnc(N6CCOCC6)c45)c3)CC2)ccc1F` [Compound 21], the dTm in [1] was 4.32 K; in experiment [2], 6.34 K; in experiment [3] it was 0.25 K; in experiment [4], 3.13 K; in experiment [5] it was 10.73 K; in [6] it was -1.16 K. Besides, the dTm was 0.24 K in [7], 0.11 K in experiment [8] and -0.0539 K in experiment [9].

Turning to `Cc1cc(NC(=O)C2(C(=O)Nc3cccc(-c4c[nH]c5ncnc(N6CCOCC6)c45)c3)CC2)ccc1F` [Compound 20], the dTm turned out to be 5.31 K in experiment [1]; 7.60 K in experiment [2]; 2.79 K in experiment [3]; 3.49 K in [4]; 11.22 K in [5]; 0.0134 K in experiment [6]. Besides, the dTm is recorded as 3.23 K in experiment [7], 0.33 K in experiment [8] and -0.05 K in experiment [9].

As to `O=C(Nc1cccc(-c2c[nH]c3ncnc(N4CCOCC4)c23)c1)C1(C(=O)Nc2ccc(F)cc2F)CC1` [Compound 23], the dTm in experiment [1] was 3.32 K; in experiment [2], 4.70 K; in experiment [3], 0.21 K; in experiment [4], 1.02 K; in [5], 7.21 K; in experiment [6], -1.28 K. Also, the dTm in experiment [7] was 1.15 K; in experiment [8] it was 0.27 K; in [9], -0.14 K.

Turning to `Cc1ccc(-n2nc(C(C)(C)C)cc2NC(=O)Nc2cccc(-c3c[nH]c4ncnc(N5CCOCC5)c34)c2)cc1` [Compound 29], the dTm was 12.51 K in experiment [1]; 0.00 K in experiment [2]; 2.17 K in experiment [3]; 0.95 K in experiment [4]; 17.42 K in [5]; 2.62 K in experiment [6]. For the same compound, the dTm in experiment [7] was 6.97 K; in experiment [8], 0.38 K; in experiment [9], -1.22 K.

On to `Cc1ccc(NC(=O)C2(C(=O)Nc3cccc(-c4c[nH]c5ncnc(N6CCOCC6)c45)c3)CC2)cc1` [Compound 14], for which the dTm in experiment [1] is 3.90 K; in experiment [2], 6.21 K; in experiment [3], 0.65 K; in [4], 1.58 K; in experiment [5] it was 6.84 K; in [6], -0.92 K. For the same compound, the dTm in experiment [7] was 2.64 K; in [8] it was 0.14 K; in experiment [9] it was 0.23 K.

Source of the values: PMC12136037, “Type II kinase inhibitors that target Parkinson’s disease–associated LRRK2” (Science Advances, 2025).
